Experiments:
[1] = tested on: triglyceride levels; experiment: Population studies (collective sample), maximum likelihood models of triglycerides versus vitamin D intake and genotype; assay type: in vivo, human
Procedure: (§1) Study populations. Factors associated with cardiovascular disease were analyzed using samples from an Aging study population from Utah (“Aging” or “Utah” sample), which included approximately 2500 subjects in 98 Utah pedigrees with 2 or more probands such as, e.g., early stroke, coronary heart disease death, or hypertension. Details regarding subject selection have been previously published. See Williams et al., Recruitment of members of high-risk Utah pedigrees. Control Clin Trials 8: 105S-114S (1987); see also Table 2 below. Additional follow-up assessments were performed, where a validated dietary survey was administered, lipid profiles were determined, DNA was obtained, and standard cardiovascular risk factors were measured. See Hunt et al., Predictors of an increased risk of future hypertension in Utah. A screening analysis. Hypertension 17: 969-976 (1991). In some of the following examples results are described for subjects selected from the foregoing population, wherein samples were excluded if they lacked data relating to complete lipid profiles, genetic polymorphism data, or dietary survey data (n=1060 subjects in 96 families for HDL analysis, and n=1057 subjects in 70 families for triglyceride analysis).
(§2) A replication cohort, moreover, consisted of 5243 caucasian subjects from the NHLBI Family Heart Study (“FamHS” or “FHS” sample), which were not previously administered cholesterol modifying medications. Data for these subjects included lipid profiles and genetic analyses, as described. See Heard-Costa et al., NRXN3 is a novel locus for waist circumference: a genome-wide association study from the CHARGE Consortium. PLoS Genet 5: e1000539 (2009). These population-based families were gathered as part of four studies: the Framingham Heart Study, the Utah Family Tree Study, and ARIC centers in Minneapolis and Forsyth County, N.C. (n=2890 individuals in 504 families; see Table 2 for sample characteristics).
(§3) Both the Aging and FamHS samples were subdivided by season (see Table 2) when measuring both diet and lipids levels. Winter subsamples included data analyzed from November to March and consisted of 362 Aging subjects and 1006 FamHS subjects as shown below in Table 2. Because HDL and triglyceride levels are inversely correlated, vitamin D-triglyceride interactions were also measured from the foregoing samples, as further described below.
(§4) Dietary questionnaire and winter subsamples. Vitamin D intake was measured both in the Aging and FHS samples via a staff-administered semi-quantitative food frequency questionnaire with reproducibility and validity. See, e.g., Willett et al., Reproducibility and validity of a semiquantitative food frequency questionnaire. Am J Epidemiol 122: 51-65 (1985). […] See Jacques et al., Comparison of micronutrient intake measured by a dietary questionnaire and biochemical indicators of micronutrient status. Am J Clin Nutr 57: 182-189 (1993).
(§5) Accordingly, the Aging and FHS studies were subdivided into seasonal and lipid measurement cohorts, both of which occurred at the same clinic visit for the subject.
(§6) Study design and analysis for the aging and FHS samples. jPAP software (see Hasstedt et al., jPAP: Document-driven software for genetic analysis. Genet Epidemiol 29 (2005)), was employed for maximum likelihood analysis, correction of potential covariates, and to estimate heritability attributable to gene-environment interaction factors (interaction) measured as changes in estimated polygenic variance. Natural log transformed HDL was employed as the dependent variable, and all maximum likelihood models included age, sex, and log transformed BMI as baseline covariates. […] Analyses were performed separately for the entire Aging sample and the Aging winter subsample. The results were confirmed using the FHS sample population. […]

[2] = tested on: HDL levels; experiment: Population studies (Aging, FHS, collective sample), maximum likelihood models of HDL versus vitamin D intake and genotype; assay type: in vivo, human; settings: for increase of HDL: vitamin D deficient subjects, retrospective studies
Procedure: as §1, §2, §3, §4, §5, §6

[3] = wintertime vitamin D intake raised from 50 IU to 550 IU, heterozygous G/C at rs3135506, model estimate
[4] = wintertime vitamin D intake raised from 50 IU to 550 IU, homozygous C/C at rs3135506, model estimate

In the case of C=C1/C(=C\C=C2/CCC[C@]3(C)[C@@H]([C@H](C)CCCC(C)(C)O)CC[C@@H]23)C[C@@H](O)C[C@@H]1O [vitamin D, 1,25-dihydroxyvitamin D3], the “effect of vitamin D on triglyceride levels” value ([1]; collective sample, entire, patients with rs3135506 polymorphism, p=0.33) is reported as “did not have a significant effect”, the “decrease of triglyceride levels” value ([1]; vitamin D deficient subjects, heterozygous for a vitamin D sensitive allele, retrospective studies) is reported as 5% and the “decrease of triglyceride levels” value ([1]; vitamin D deficient subjects, homozygous for a vitamin D sensitive allele, retrospective studies) is reported as 10%. For the same compound, the “decrease of triglyceride levels” value [1, 3] was 50 mg/dL, the “decrease of triglyceride levels” value [1, 4] was 125 mg/dL and the increase of triglycerides ([1]; wintertime vitamin D intake raised from 50 IU to 550 IU, homozygous G/G at rs3135506 (wild-type), model estimate) was 2 mg/dL. For the same compound, the “association of vitamin D alone with HDL levels” value ([2]; FHS study population, entire sample) was “not associated with an increase in patient HDL levels”, the “increase of HDL” value ([2]; heterozygous for a vitamin D sensitive allele) was 5% and the “increase of HDL” value ([2]; homozygous for a vitamin D sensitive allele) was 10%. For the same compound, the “increase of HDL cholesterol” value [2, 3] was “approximately 10 mg/dL”, the “increase of HDL cholesterol” value [2, 4] was “approximately 20 mg/dL” and the “decrease of HDL cholesterol” value ([2]; wintertime vitamin D intake raised from 50 IU to 550 IU, homozygous G/G at rs3135506, model estimate) was “approximately 0.5 mg/dL”.
